The supplement of paper PMC10307832

Columns and labels:
Assay in all cases: relative viability (nuclei count vs DMSO), 5 days (fraction); higher = more cells survive
LU99A = test system: LU99A
Outline: (§1)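 After 5 days of treatment, lung cancer cells in 1536-well plates were fixed and stained in a single step (final 0.05% Triton X-100, 1% formaldehyde, 1 ug/ml Hoechst) and their nuclei counted on 4× images. Treatment had been applied by pin tool the day after seeding as one drug alone or as a fixed anchor-drug dose with five library-drug doses (not always all listed) in √10 steps. Relative viability is the nuclei count of treated wells divided by that of vehicle wells, and values are medians of duplicate plates.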

NCI-H2170 = test system: NCI-H2170
Outline: as §1

NCI-H650 = test system: NCI-H650
Outline: as §1

201T = test system: 201T
Outline: as §1

NCI-H1437 = test system: NCI-H1437
Outline: as §1

NCI-H647 = test system: NCI-H647
Outline: as §1

PC-3 [JPC-3] = test system: PC-3 [JPC-3]
Outline: as §1

NCI-H2085 = test system: NCI-H2085
Outline: as §1

SW 1573 = test system: SW 1573
Outline: as §1

EPLC-272H = test system: EPLC-272H
Outline: as §1

H3255 = test system: H3255
Outline: as §1

## CCN(CC)CCCCNc1ncc2cc(-c3cc(OC)cc(OC)c3)c(NC(=O)NC(C)(C)C)nc2n1 + COc1cccc2cc(-c3nc([C@H]4CC[C@H](C(=O)O)CC4)n4ncnc(N)c34)[nH]c12 [OSI-027] (partner 0.5 µM)
LU99A; first compound 0.01 µM
  relative viability: 0.292
LU99A; first compound 0.03162 µM
  relative viability: 0.259
LU99A; first compound 0.1 µM
  relative viability: 0.309
LU99A; first compound 0.3162 µM
  relative viability: 0.291
LU99A; first compound 1 µM
  relative viability: 0.302
NCI-H2170; first compound 0.01 µM
  relative viability: 0.768
NCI-H2170; first compound 0.03162 µM
  relative viability: 0.67
NCI-H2170; first compound 0.1 µM
  relative viability: 0.71
NCI-H2170; first compound 0.3162 µM
  relative viability: 0.79
NCI-H2170; first compound 1 µM
  relative viability: 0.75
NCI-H650; first compound 0.01 µM
  relative viability: 0.46
NCI-H650; first compound 0.03162 µM
  relative viability: 0.551
NCI-H650; first compound 0.1 µM
  relative viability: 0.589
NCI-H650; first compound 0.3162 µM
  relative viability: 0.605
NCI-H650; first compound 1 µM
  relative viability: 0.507
201T; first compound 0.01 µM
  relative viability: 0.615
201T; first compound 0.03162 µM
  relative viability: 0.658
201T; first compound 0.1 µM
  relative viability: 0.927
201T; first compound 0.3162 µM
  relative viability: 0.798
201T; first compound 1 µM
  relative viability: 0.607
NCI-H1437; first compound 0.01 µM
  relative viability: 0.978
NCI-H1437; first compound 0.03162 µM
  relative viability: 0.876
NCI-H1437; first compound 0.1 µM
  relative viability: 0.925
NCI-H1437; first compound 0.3162 µM
  relative viability: 0.874
NCI-H1437; first compound 1 µM
  relative viability: 0.857
NCI-H647; first compound 0.01 µM
  relative viability: 0.539
NCI-H647; first compound 0.03162 µM
  relative viability: 0.8
NCI-H647; first compound 0.1 µM
  relative viability: 0.848
NCI-H647; first compound 0.3162 µM
  relative viability: 0.861
NCI-H647; first compound 1 µM
  relative viability: 0.56
PC-3 [JPC-3]; first compound 0.01 µM
  relative viability: 0.753
PC-3 [JPC-3]; first compound 0.03162 µM
  relative viability: 0.796
PC-3 [JPC-3]; first compound 0.1 µM
  relative viability: 0.782
PC-3 [JPC-3]; first compound 0.3162 µM
  relative viability: 1.02
PC-3 [JPC-3]; first compound 1 µM
  relative viability: 0.585
NCI-H2085; first compound 0.01 µM
  relative viability: 0.71
NCI-H2085; first compound 0.03162 µM
  relative viability: 0.759
NCI-H2085; first compound 0.1 µM
  relative viability: 0.867
NCI-H2085; first compound 0.3162 µM
  relative viability: 0.803
NCI-H2085; first compound 1 µM
  relative viability: 0.725
SW 1573; first compound 0.01 µM
  relative viability: 0.578
SW 1573; first compound 0.03162 µM
  relative viability: 0.693
SW 1573; first compound 0.1 µM
  relative viability: 0.839
SW 1573; first compound 0.3162 µM
  relative viability: 0.691
SW 1573; first compound 1 µM
  relative viability: 0.629
EPLC-272H; first compound 0.01 µM
  relative viability: 0.272
EPLC-272H; first compound 0.03162 µM
  relative viability: 0.281
EPLC-272H; first compound 0.1 µM
  relative viability: 0.234
EPLC-272H; first compound 0.3162 µM
  relative viability: 0.28
EPLC-272H; first compound 1 µM
  relative viability: 0.301
H3255; first compound 0.01 µM
  relative viability: 0.524
H3255; first compound 0.03162 µM
  relative viability: 0.547
H3255; first compound 0.1 µM
  relative viability: 0.698
H3255; first compound 0.3162 µM
  relative viability: 0.448
H3255; first compound 1 µM
  relative viability: 0.538
